Data reported in ChEMBL document CHEMBL1122548, “1-Aryl-3,3-dimethyltriazenes: potential central nervous system active analogues of 5-(3,3-dimethyl-1-triazeno)imidazole-4-carboxamide (DTIC)” (J Med Chem, 1984).

What was measured:
Mus musculus [1] = assay: Maximum increase in life span was measured in B6d2F1 mice after implanting murine leukemia L1210 cells(ip, 10e5 cells) at an intraperitoneal optimal dose of 39 mg/ (kg day)(qd 1-9); assay type: functional
Mus musculus [2] = assay: Percent increase in life span was measured in B6C3F1 mice after implanting murine Ependymoblastoma cells(ic) at an intraperitoneal optimal dose of 128 mg/ (kg injection)
[3] = Partition coefficient (logP); assay type: physicochemical; conditions: octanol/water
Mus musculus [4] = assay: Maximum increase in life span was measured in B6d2F1 mice after implanting murine leukemia L1210 cells(ic, 10e4 cells) at an intracerebral optimal dose of 160 mg/ (kg day)(qd 1-9); assay type: functional
Mus musculus [5] = assay: Maximum increase in life span was measured in B6d2F1 mice after implanting murine leukemia L1210 cells(ip, 10e5 cells) at an intraperitoneal optimal dose of 108 mg/ (kg day)(qd 1-9); assay type: functional
Mus musculus [6] = assay: Percent increase in life span was measured in B6C3F1 mice after implanting murine Ependymoblastoma cells(ic) at an intraperitoneal optimal dose of 64 mg/ (kg injection)
Mus musculus [7] = assay: Maximum increase in life span was measured in B6d2F1 mice after implanting murine leukemia L1210 cells(ic, 10e4 cells) at an intracerebral optimal dose of 40 mg/ (kg day)(qd 1-9); assay type: functional
Mus musculus [8] = assay: Maximum increase in life span was measured in B6d2F1 mice after implanting murine leukemia L1210 cells(ic, 10e4 cells) at an intracerebral optimal dose of 80 mg/ (kg day)(qd 1-9); assay type: functional
Mus musculus [9] = assay: Percent increase in life span was measured in B6C3F1 mice after implanting murine Ependymoblastoma cells(ic) at an intraperitoneal optimal dose of 32 mg/ (kg injection)
Mus musculus [10] = assay: Maximum increase in life span was measured in B6d2F1 mice after implanting murine leukemia L1210 cells(ic, 10e4 cells) at an intracerebral optimal dose of 40 mg/(kg day)(qd 1-9); assay type: functional
Mus musculus [11] = assay: Maximum increase in life span was measured in B6d2F1 mice after implanting murine leukemia L1210 cells(ip, 10e5 cells) at an intraperitoneal optimal dose of 65 mg/(kg day)(qd 1-9); assay type: functional
Mus musculus [12] = assay: Maximum increase in life span was measured in B6d2F1 mice after implanting murine leukemia L1210 cells(ip, 10e5 cells) at an intraperitoneal optimal dose of 65 mg/ (kg day)(qd 1-9); assay type: functional
Mus musculus [13] = assay: Percent increase in life span was measured in B6C3F1 mice after implanting murine Ependymoblastoma cells(ic) at an intraperitoneal optimal dose of 8 mg/ (kg injection)
Mus musculus [14] = assay: Maximum increase in life span was measured in B6d2F1 mice after implanting murine leukemia L1210 cells(ic, 10e4 cells) at an intracerebral optimal dose of 20 mg/ (kg day)(qd 1-9); assay type: functional
Mus musculus [15] = assay: Percent increase in life span was measured in B6d2F1 mice after implanting B16 melanoma cells(ic) at an intracerebral (ic) optimal dose of 40-80 mg/ (kg day); assay type: functional
Mus musculus [16] = assay: Maximum increase in life span was measured in B6d2F1 mice after implanting murine leukemia L1210 cells(ip, 10e5 cells) at an intraperitoneal optimal dose of 300 mg/ (kg day)(qd 1-9); assay type: functional
Mus musculus [17] = assay: Percent increase in life span was measured in B6d2F1 mice after implanting B16 melanoma cells(ic) at an intracerebral (ic) optimal dose of 10-40 mg/ (kg day); assay type: functional

## COC(=O)c1cccc(/N=N/N(C)C)c1
Mus musculus [1]
  ILS: 30%
Mus musculus [2]
  ILS: 62%
[3]; read-out: logP
  logP: 2.77
Mus musculus [4]
  ILS: 10%

## CN(C)/N=N/c1c(Br)cccc1Br
Mus musculus [5]
  ILS: 44%
[3]; read-out: logP
  logP: 4.31
Mus musculus [4]
  ILS: 14%

## COC(=O)c1ccc(/N=N/N(C)C)cc1
Mus musculus [1]
  ILS: 40%
Mus musculus [6]
  ILS: 64%
[3]; read-out: logP
  logP: 2.77
Mus musculus [4]
  ILS: 7%

## CN(C)/N=N/c1cccc(C(N)=O)c1
Mus musculus [1]
  ILS: 50%
[3]; read-out: logP
  logP: 1.21
Mus musculus [7]
  ILS: 22%

## CN(C)/N=N/c1ccc(C(=O)O)cc1
Mus musculus [1]
  ILS: 41%
[3]
  logP: -1.77
Mus musculus [8]
  ILS: 25%
Mus musculus [9]
  ILS: 18%

## COC(=O)c1ccccc1/N=N/N(C)C
[3]; read-out: logP
  logP: 2.72
Mus musculus [10]
  ILS: 14%
Mus musculus [11]
  ILS: 11%

## CN(C)/N=N/c1ccccc1Cl
Mus musculus [2]
  ILS: 38%
Mus musculus [8]
  ILS: 5%
Mus musculus [12]
  ILS: 21%

## CN(C)/N=N/c1ccccc1C(=O)O
Mus musculus [13]
  ILS: 2%
Mus musculus [14]
  ILS: 6%
[3]; read-out: logP
  logP: -2.66
Mus musculus [12]
  ILS: 12%

## CN(C)/N=N/c1ccc(C(N)=O)cc1
Mus musculus [15]
  ILS: 30%
Mus musculus [1]
  ILS: 40%
[3]
  logP: 1.2
Mus musculus [4]
  ILS: 45%
Mus musculus [9]
  ILS: 62%

## CN(C)/N=N/c1c(Cl)cccc1Cl
Mus musculus [5]
  ILS: 39%
[3]; read-out: logP
  logP: 4.01
Mus musculus [4]
  ILS: 12%

## CN(C)/N=N/c1cccc(Cl)c1
Mus musculus [5]
  ILS: 11%
[3]; read-out: logP
  logP: 3.3
Mus musculus [7]
  ILS: 7%

## CC(=O)c1ccccc1/N=N/N(C)C
Mus musculus [5]
  ILS: 0%
[3]; read-out: logP
  logP: 2.19
Mus musculus [7]
  ILS: 9%

## CC(=O)c1cccc(/N=N/N(C)C)c1
[3]; read-out: logP
  logP: 2.19
Mus musculus [7]
  ILS: 6%
Mus musculus [12]
  ILS: 55%

## CN(C)/N=N/c1ccccc1C(N)=O
Mus musculus [7]
  ILS: 10%
Mus musculus [12]
  ILS: 10%

## CN(C)/N=N/c1ccc(I)cc1
Mus musculus [16]
  ILS: 5%
[3]; read-out: logP
  logP: 3.71

## CN(C)/N=N/c1ccc(Br)cc1
Mus musculus [16]
  ILS: 0%
[3]; read-out: logP
  logP: 3.45

## CC(=O)c1ccc(/N=N/N(C)C)cc1
Mus musculus [5]
  ILS: 16%
Mus musculus [14]
  ILS: 5%
[3]; read-out: logP
  logP: 2.19

## CN(C)/N=N/c1ccc(F)cc1
Mus musculus [16]
  ILS: 16%
[3]; read-out: logP
  logP: 2.73

## CN(C)/N=N/c1ccc(Cl)cc1
Mus musculus [5]
  ILS: 26%
[3]; read-out: logP
  logP: 3.3
Mus musculus [8]
  ILS: 2%

## CN(C)/N=N/c1[nH]cnc1C(N)=O [DACARBAZINE]
Mus musculus [5]
  ILS: 50%
Mus musculus [6]
  ILS: 60%
[3]
  logP: -0.24
Mus musculus [4]
  ILS: 18%
Mus musculus [17]
  ILS: 8%
